Reference: patent US20050070554A1, “Substituted heterocyclic compounds and methods of use” (Amgen Inc., priority 2003, published 2005)
Like-named read-outs stand apart in the source and are kept apart here.

Target: T1, LCK (Homo sapiens, UniProt P06239)
T1 construct: LCK KD GST (225-509); GST
Test: LCK-Homogeneous Time Resolved Fluorescent (HTRF) Kinase Assay
Assay type: biochemical
Protocol: LCK-Homogeneous Time Resolved Fluorescent (HTRF) Kinase Assay:
The LCK HTRF assay begins with LCK in the presence of ATP phosphorylating the biotinylated peptide Gastrin. The reaction incubates for 90 min. To quench the assay detection reagents are added which both stop the reaction by diluting out the enzyme and chelating the metals due to the presence of EDTA. Once the detection reagents are added the assay incubates for 30 min to allow for equilibration of the detection reagents.
Buffer conditions are as follows: 50 mM HEPES pH 7.5, 50 mM NaCl, 20 mM MgCl, 5 mM MnCl, 2 mM DTT, 0.05% BSA.
The assay is quenched and stopped with 160 μL of detection reagent. Detection reagents are as follows: Buffer made of 50 mM Tris, pH 7.5, 100 mM NaCl, 3 mM EDTA, 0.05% BSA, 0.1% Tween20.
The assay plate is read in either a Discovery or a RubyStar.

[1] = read-out: activity in the LCK-HTRF Kinase Assay

T1 sequence (P06239 225-509): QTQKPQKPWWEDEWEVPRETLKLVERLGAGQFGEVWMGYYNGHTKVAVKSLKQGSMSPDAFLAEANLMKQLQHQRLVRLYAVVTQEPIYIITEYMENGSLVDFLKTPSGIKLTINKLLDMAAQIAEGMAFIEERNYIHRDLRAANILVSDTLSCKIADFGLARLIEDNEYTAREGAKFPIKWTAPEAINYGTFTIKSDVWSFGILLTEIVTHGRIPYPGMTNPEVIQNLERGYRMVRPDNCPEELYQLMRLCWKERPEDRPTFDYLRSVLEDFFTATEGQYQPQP

SMILES | IC50 [1] | IC50
Cc1cccc(C)c1-n1c(=O)c2cnc(Nc3ccc(OCCNC(C)C)cc3)nc2n2c3ccccc3nc12 [No. 56, 6-(2,6-dimethylphenyl)-2-((4-((2-((1-methylethyl)-amino)ethyl)oxy)phenyl)amino)pyrimido[5′,4′:5,6]-pyrimido[1,2-a]benzimidazol-5(6H)-one] | < 1000 nM | –
COc1ccc(-n2c(=O)c3cnc(Nc4ccc(N5CCN(C)CC5)cc4)nc3n3c4ccccc4nc23)cc1 [No. 57, 6-(4-(methyloxy)phenyl)-2-((4-(4-methyl-1-piperazinyl)phenyl)amino)pyrimido[5′,4′:5,6]-pyrimido[1,2-a]benzimidazol-5(6H)-one] | < 1000 nM | –
Cc1cccc(C)c1N1C(=O)c2cnc(Nc3ccc(N4CCN(C)CC4)cc3)nc2N2CCN=C21 [No. 58, 6-(2,6-dimethylphenyl)-2-((4-(4-methyl-1-piperazinyl)phenyl)amino)-8,9-dihydroimidazo[1,2-a]pyrimido[5,4-e]pyrimidin-5(6H)-one] | < 1000 nM | –
Cc1cccc(C)c1-n1c(=O)c2cnc(Nc3ccc(OCCN4CCCCC4)c(Cl)c3)nc2n2c3ccccc3nc12 [No. 59, 2-((3-chloro-4-((2-(1-piperidinyl)ethyl)oxy)phenyl)-amino)-6-(2,6-dimethylphenyl)pyrimido[5′,4′:5,6]-pyrimido[1,2-a]benzimidazol-5(6H)-one] | < 1000 nM | –
C[C@@H](c1ccccc1)n1c(=O)c2cnc(Nc3ccc(N4CCN(C)CC4)cc3)nc2n2c3ccccc3nc12 [No. 60, 2-((4-(4-methyl-1-piperazinyl)phenyl)amino)-6-((1S)-1-phenylethyl)pyrimido[5′,4′:5,6]pyrimido[1,2-a]-benzimidazol-5(6H)-one] | < 1000 nM | –
Cc1cccc(C)c1-n1c(=O)c2cnc(Nc3ccc(OCCN4CCN(C(C)C)CC4)c(F)c3)nc2n2c3ccccc3nc12 [No. 61, 6-(2,6-dimethylphenyl)-2-((3-fluoro-4-((2-(4-(1-methylethyl)-1-piperazinyl)ethyl)oxy)phenyl)amino)-pyrimido[5′,4′:5,6]pyrimido[1,2-a]benzimidazol-5(6H)-one] | < 1000 nM | –
COc1cc(Nc2ncc3c(=O)n(-c4c(C)cccc4C)c4nc5ccccc5n4c3n2)ccc1OCCN1CCN(C(C)C)CC1 [No. 62, 6-(2,6-dimethylphenyl)-2-((4-((2-(4-(1-methylethyl)-1-piperazinyl)ethyl)oxy)-3-(methyloxy)phenyl)-amino)pyrimido[5′,4′:5,6]pyrimido[1,2-a]-benzimidazol-5(6H)-one] | < 1000 nM | –
COc1cc(Nc2ncc3c(=O)n(-c4c(C)cccc4C)c4nc5ccccc5n4c3n2)ccc1OCCCN1CCN(C(C)C)CC1 [No. 63, 6-(2,6-dimethylphenyl)-2-((4-((3-(4-(1-methylethyl)-1-piperazinyl)propyl)oxy)-3-(methyloxy)phenyl)-amino)pyrimido[5′,4′:5,6]pyrimido[1,2-a]-benzimidazol-5(6H)-one] | < 1000 nM | –
CCN(CC)CCN(C)C(=O)c1ccc(Nc2ncc3c(=O)n(-c4c(C)cccc4C)c4nc5ccccc5n4c3n2)cc1 [No. 64, N-(2-(diethylamino)ethyl)-4-((6-(2,6-dimethylphenyl)-5-oxo-5,6-dihydropyrimido[5′,4′:5,6]pyrimido[1,2-a]-benzimidazol-2-yl)amino)-N-methylbenzamide] | < 1000 nM | –
Cc1cccc(C)c1-n1c(=O)c2cnc(Nc3cccc(C(=O)NCCN(C)C)c3)nc2n2c3ccccc3nc12 [No. 65, N-(2-(dimethylamino)ethyl)-3-((6-(2,6-dimethylphenyl)-5-oxo-5,6-dihydropyrimido[5′,4′:5,6]pyrimido[1,2-a]-benzimidazol-2-yl)amino)benzamide] | < 1000 nM | –
CCN(CC)CCN(C)C(=O)c1cccc(Nc2ncc3c(=O)n(-c4c(C)cccc4C)c4nc5ccccc5n4c3n2)c1 [No. 66, N-(2-(diethylamino)ethyl)-3-((6-(2,6-dimethylphenyl)-5-oxo-5,6-dihydropyrimido[5′,4′:5,6]pyrimido[1,2-a]-benzimidazol-2-yl)amino)-N-methylbenzamide] | < 1000 nM | –
CN1CCN(c2ccc(Nc3ncc4c(=O)n(-c5c(Cl)cccc5Cl)c5nc6ccccc6n5c4n3)cc2)CC1 [No. 67, 6-(2,6-dichlorophenyl)-2-((4-(4-methyl-1-piperazinyl)phenyl)amino)pyrimido[5′,4′:5,6]-pyrimido[1,2-a]benzimidazol-5(6H)-one] | – | < 1000 nM
C[C@H](c1ccccc1)n1c(=O)c2cnc(Nc3ccc(N4CCN(C)CC4)cc3)nc2n2c3ccccc3nc12 [No. 68, 2-((4-(4-methyl-1-piperazinyl)phenyl)amino)-6-((1R)-1-phenylethyl)pyrimido[5′,4′:5,6]pyrimido[1,2-a]-benzimidazol-5(6H)-one] | < 1000 nM | –
Cc1cccc(C)c1-n1c(=O)c2cnc(Nc3ccc(N4CCN(CCO)CC4)cc3)nc2n2c3ccccc3nc12 [No. 69, 6-(2,6-dimethylphenyl)-2-((4-(4-(2-hydroxyethyl)-1-piperazinyl)phenyl)amino)pyrimido[5′,4′:5,6]-pyrimido[1,2-a]benzimidazol-5(6H)-one] | < 1000 nM | –
Cc1cccc(C)c1-n1c(=O)c2cnc(Nc3ccc(OCCN4CCN(C(C)C)CC4)c(Cl)c3)nc2n2c3ccccc3nc12 [No. 70, 2-((3-chloro-4-((2-(4-(1-methylethyl)-1-piperazinyl)-ethyl)oxy)phenyl)amino)-6-(2,6-dimethylphenyl)-pyrimido[5′,4′:5,6]pyrimido[1,2-a]benzimidazol-5(6H)-one] | < 1000 nM | –
Cc1cccc(C)c1-n1c(=O)c2cnc(Nc3ccc(C(=O)NCCN(C)C)cc3)nc2n2c3ccccc3nc12 [No. 71, N-(2-(dimethylamino)ethyl)-4-((6-(2,6-dimethylphenyl)-5-oxo-5,6-dihydropyrimido[5′,4′:5,6]pyrimido[1,2-a]-benzimidazol-2-yl)amino)benzamide] | < 1000 nM | –
Cc1cccc(C)c1-n1c(=O)c2cnc(Nc3ccc(OCCCN4CCN(C(C)C)CC4)c(F)c3)nc2n2c3ccccc3nc12 [No. 72, 6-(2,6-dimethylphenyl)-2-((3-fluoro-4-((3-(4-(1-methylethyl)-1-piperazinyl)propyl)oxy)phenyl)-amino)pyrimido[5′,4′:5,6]pyrimido[1,2-a]-benzimidazol-5(6H)-one] | < 1000 nM | –
Cc1cccc(C)c1-n1c(=O)c2cnc(Nc3ccc(OCCCN4CCN(C)CC4)c(Cl)c3)nc2n2c3ccccc3nc12 [No. 73, 2-((3-chloro-4-((3-(4-methyl-1-piperazinyl)propyl)-oxy)phenyl)amino)-6-(2,6-dimethylphenyl)-pyrimido[5′,4′:5,6]pyrimido[1,2-a]benzimidazol-5(6H)-one] | < 1000 nM | –
Cc1cccc(C)c1-n1c(=O)c2cnc(Nc3ccc(N4CCCN(C)CC4)cc3)nc2n2c3ccccc3nc12 [No. 74, 6-(2,6-dimethylphenyl)-2-((4-(4-methyl-1,4-diazepan-1-yl)phenyl)amino)pyrimido[5′,4′:5,6]pyrimido[1,2-a]benzimidazol-5(6H)-one] | < 1000 nM | –
Cc1cccc(C)c1-n1c(=O)c2cnc(Nc3ccc(N4CCCNCC4)cc3)nc2n2c3ccccc3nc12 [No. 75, 2-((4-(1,4-diazepan-1-yl)phenyl)amino)-6-(2,6-dimethylphenyl)pyrimido[5′,4′:5,6]pyrimido[1,2-a]-benzimidazol-5(6H)-one] | < 1000 nM | –
COc1ccc(Cl)cc1-n1c(=O)c2cnc(Nc3ccc(N4CCN(C)CC4)cc3)nc2n2c3ccccc3nc12 [No. 76, 6-(5-chloro-2-(methyloxy)phenyl)-2-((4-(4-methyl-1-piperazinyl)phenyl)amino)pyrimido[5′,4′:5,6]-pyrimido[1,2-a]benzimidazol-5(6H)-one] | – | < 1000 nM
CN1CCN(c2ccc(Nc3ncc4c(=O)n(-c5c(Cl)cc(Cl)cc5Cl)c5nc6ccccc6n5c4n3)cc2)CC1 [No. 77, 2-((4-(4-methyl-1-piperazinyl)phenyl)amino)-6-(2,4,6-trichlorophenyl)pyrimido[5′,4′:5,6]-pyrimido[1,2-a]benzimidazol-5(6H)-one] | – | < 1000 nM
Cc1ccc(-n2c(=O)c3cnc(Nc4ccc(N5CCN(C)CC5)cc4)nc3n3c4ccccc4nc23)cc1 [No. 78, 6-(4-methylphenyl)-2-((4-(4-methyl-1-piperazinyl)-phenyl)amino)pyrimido[5′,4′:5,6]pyrimido[1,2-a]-benzimidazol-5(6H)-one] | – | < 1000 nM
CN1CCN(c2ccc(Nc3ncc4c(=O)n(-c5ccccc5F)c5nc6ccccc6n5c4n3)cc2)CC1 [No. 79, 6-(2-fluorophenyl)-2-((4-(4-methyl-1-piperazinyl)-phenyl)amino)pyrimido[5′,4′:5,6]pyrimido[1,2-a]-benzimidazol-5(6H)-one] | < 1000 nM | –
Cc1cccc(-n2c(=O)c3cnc(Nc4ccc(N5CCN(C)CC5)cc4)nc3n3c4ccccc4nc23)c1 [No. 80, 6-(3-methylphenyl)-2-((4-(4-methyl-1-piperazinyl)-phenyl)amino)pyrimido[5′,4′:5,6]pyrimido[1,2-a]-benzimidazol-5(6H)-one] | – | < 1000 nM
COc1cccc(-n2c(=O)c3cnc(Nc4ccc(N5CCN(C)CC5)cc4)nc3n3c4ccccc4nc23)c1 [No. 81, 6-(3-(methyloxy)phenyl)-2-((4-(4-methyl-1-piperazinyl)phenyl)amino)pyrimido[5′,4′:5,6]-pyrimido[1,2-a]benzimidazol-5(6H)-one] | – | < 1000 nM
CN1CCN(c2ccc(Nc3ncc4c(=O)n(-c5cccc(F)c5)c5nc6ccccc6n5c4n3)cc2)CC1 [No. 83, 6-(3-fluorophenyl)-2-((4-(4-methyl-1-piperazinyl)-phenyl)amino)pyrimido[5′,4′:5,6]pyrimido[1,2-a]-benzimidazol-5(6H)-one] | < 1000 nM | –
